From patent publication US11214594B2, “Antimicrobial peptide having synergistic antibacterial effect with antibiotics on multidrug resistant bacteria, and use thereof” (priority 2016, dated 2022)
In brackets after ≈: the same amount, converted by molar mass. Like-named read-outs stand apart in the source and are kept apart here. Where a SMILES comes first, the peptide text is derived from it.

Tests used:
E. coli [1] = test: microbe, parasite or virus in culture; type: cell-based, Escherichia coli
Procedure, shortened: (§1)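 Each strain is brought to 2×10^6 CFU in nutrient-sufficient Mueller-Hinton medium and dispensed into wells. Peptide solutions, stepwise diluted 2:1 in the same medium, are then added. The minimal concentration preventing growth gives the MIC.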

MDREC 1229 [2] = test: microbe, parasite or virus in culture; type: cell-based, Escherichia coli
Procedure, shortened: as §1

P. aeruginosa = test: microbe, parasite or virus in culture; type: cell-based, Pseudomonas aeruginosa
Procedure, shortened: as §1

MDRST 8009 = type: cell-based, Salmonella typhimurium; conditions: agent alone
Procedure, shortened: as §1

B. subtilis = test: microbe, parasite or virus in culture; type: cell-based, Bacillus subtilis
Procedure, shortened: as §1

S. epidermidis = test: microbe, parasite or virus in culture; type: cell-based, Staphylococcus epidermidis
Procedure, shortened: as §1

E. coli [3] = test: MIC of antibiotic during combined treatment with antimicrobial peptide; type: cell-based, Escherichia coli; conditions: for Antibiotic MIC, Erythromycin / Antibiotic MIC, Linezolid / Antibiotic MIC, Vancomycin: E. coli
Procedure, shortened: (§2)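 Checkerboard-type MIC of peptide–antibiotic mixtures in MH medium: the antibiotic was serially diluted in MH medium and added to wells, then the reversed arrangement was also tested.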

MDREC 1229 [4] = test: as above; type: cell-based, Escherichia coli
Procedure, shortened: (§3)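 Strains in MH medium at 2×10^6 CFU/ml were mixed with peptide diluted stepwise (2:1) from its MIC, then antibiotic dilutions in MH medium were added to give the antibiotic MIC. The reversed set-up, peptide titrated against fixed antibiotic, gave the peptide MIC.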

A. baumannii [5] = test: as above; type: cell-based, Acinetobacter baumannii; conditions: for Antibiotic MIC, Erythromycin / Antibiotic MIC, Linezolid / Antibiotic MIC, Vancomycin: A. baumannii
Procedure, shortened: as §2

E. coli [6] = type: cell-based, Escherichia coli; conditions: E. coli
Procedure, shortened: as §3

MDREC 1229 [7] = type: cell-based, Escherichia coli
Procedure, shortened: as §3

A. baumannii [8] = test: MIC of antimicrobial peptide during combined treatment with antibiotic; type: cell-based, Acinetobacter baumannii
Procedure, shortened: as §3

MDRAB 12035 = test: as above; type: cell-based, Acinetobacter baumannii
Procedure, shortened: as §3

[9] = peptide treatment concentration 1 μg/ml
[10] = peptide treatment concentration 2 μg/ml
[11] = peptide treatment concentration 4 μg/ml
[12] = peptide treatment concentration 6 μg/ml
[13] = peptide treatment concentration 8 μg/ml
[14] = peptide treatment concentration 16 μg/ml
[15] = peptide treatment concentration 32 μg/ml
[16] = peptide treatment concentration 64 μg/ml
[17] = combined with peptide at 1 μg/ml
[18] = combined with peptide at 2 μg/ml
[19] = combined with peptide at 4 μg/ml
[20] = combined with peptide at 6 μg/ml
[21] = combined with peptide at 8 μg/ml
[22] = combined with peptide at 16 μg/ml
[23] = combined with peptide at 32 μg/ml
[24] = combined with peptide at 64 μg/ml
[25] = with Erythromycin […] (Conc./MIC 1)
[26] = erythromycin 4 μg/ml (Conc./MIC 1/8)
[27] = erythromycin 8 μg/ml (Conc./MIC 1/4)
[28] = erythromycin 16 μg/ml (Conc./MIC 1/2)
[29] = erythromycin 32 μg/ml (Conc./MIC 1)
[30] = vancomycin 512 μg/ml (Conc./MIC 1/2)
[31] = vancomycin 1024 μg/ml (Conc./MIC 1)

## CC[C@H](C)[C@H](NC(=O)[C@H](CCCCN)NC(=O)[C@H](Cc1c[nH]c2ccccc12)NC(=O)[C@@H](N)CCCNC(=N)N)C(=O)N[C@@H](Cc1ccccc1)C(=O)N[C@@H](CCCCN)C(=O)N[C@@H](CCCCN)C(=O)N[C@H](C(=O)N1CCC[C@H]1C(=O)N[C@@H](CCCCN)C(=O)N[C@@H](CC(C)C)C(=O)N[C@@H](CC(C)C)C(=O)N[C@@H](Cc1c[nH]cn1)C(=O)N[C@@H](CO)C(=O)N[C@@H](CC(C)C)C(=O)N[C@@H](CCCCN)C(=O)N[C@@H](CCCCN)C(=O)N[C@@H](Cc1c[nH]c2ccccc12)C(N)=O)[C@@H](C)CC [PapMA-10, RWK IFK KIP KLL HSL KKW-NH2] (H-RWKIFKKIPKLLHSLKKW-NH2; N-terminus assumed)
E. coli [1]; 16 h
  Minimal inhibitory concentration MIC: 32 µg/mL (≈ 13.6 µM)
E. coli [1]; E. coli
  Antibacterial activity relative to PapMA-1: at least twice as high
MDREC 1229 [2]
  Minimal inhibitory concentration MIC: 64 µg/mL (≈ 27.2 µM)
P. aeruginosa
  Minimal inhibitory concentration MIC: 8 µg/mL (≈ 3.41 µM)
MDRST 8009
  Minimal inhibitory concentration MIC: 32 µg/mL (≈ 13.6 µM)
B. subtilis
  Minimal inhibitory concentration MIC: >128 µg/mL
S. epidermidis
  Minimal inhibitory concentration MIC: >128 µg/mL
E. coli [3]; E. coli and MDREC1229
  Synergistic effect of antibacterial activity with existing antibiotics compared with PapMA-1: level similar to that of the PapMA-1 peptide
E. coli [3]; erythromycin combined with peptide at 1 μg/ml
  Antibiotic MIC, Erythromycin: 128 µg/mL
E. coli [3]; erythromycin combined with peptide at 2 μg/ml
  Antibiotic MIC, Erythromycin: 64 µg/mL
E. coli [3]; erythromycin combined with peptide at 4 μg/ml
  Antibiotic MIC, Erythromycin: 32 µg/mL
E. coli [3]; erythromycin combined with peptide at 6 μg/ml
  Antibiotic MIC, Erythromycin: 8 µg/mL
E. coli [3]; erythromycin combined with peptide at 8 μg/ml
  Antibiotic MIC, Erythromycin: 0.5 µg/mL
E. coli [3]; erythromycin combined with peptide at 16 μg/ml
  Antibiotic MIC, Erythromycin: 0.25 µg/mL
E. coli [3]; erythromycin combined with peptide at 32 μg/ml
  Antibiotic MIC, Erythromycin: 0 µg/mL
E. coli [3]; erythromycin combined with peptide at 64 μg/ml
  Antibiotic MIC, Erythromycin: 0 µg/mL
E. coli [3]; linezolid combined with peptide at 1 μg/ml
  Antibiotic MIC, Linezolid: >128 µg/mL
E. coli [3]; linezolid combined with peptide at 2 μg/ml
  Antibiotic MIC, Linezolid: >128 µg/mL
E. coli [3]; linezolid combined with peptide at 4 μg/ml
  Antibiotic MIC, Linezolid: 128 µg/mL
E. coli [3]; linezolid combined with peptide at 6 μg/ml
  Antibiotic MIC, Linezolid: 64 µg/mL
E. coli [3]; linezolid combined with peptide at 8 μg/ml
  Antibiotic MIC, Linezolid: 8 µg/mL
E. coli [3]; linezolid combined with peptide at 16 μg/ml
  Antibiotic MIC, Linezolid: 4 µg/mL
E. coli [3]; linezolid combined with peptide at 32 μg/ml
  Antibiotic MIC, Linezolid: 0 µg/mL
E. coli [3]; linezolid combined with peptide at 64 μg/ml
  Antibiotic MIC, Linezolid: 0 µg/mL
E. coli [3]; vancomycin combined with peptide at 1 μg/ml
  Antibiotic MIC, Vancomycin: >128 µg/mL
E. coli [3]; vancomycin combined with peptide at 2 μg/ml
  Antibiotic MIC, Vancomycin: >128 µg/mL
E. coli [3]; vancomycin combined with peptide at 4 μg/ml
  Antibiotic MIC, Vancomycin: 64 µg/mL
E. coli [3]; vancomycin combined with peptide at 6 μg/ml
  Antibiotic MIC, Vancomycin: 32 µg/mL
E. coli [3]; vancomycin combined with peptide at 8 μg/ml
  Antibiotic MIC, Vancomycin: 16 µg/mL
E. coli [3]; vancomycin combined with peptide at 16 μg/ml
  Antibiotic MIC, Vancomycin: 2 µg/mL
E. coli [3]; vancomycin combined with peptide at 32 μg/ml
  Antibiotic MIC, Vancomycin: 0 µg/mL
E. coli [3]; vancomycin combined with peptide at 64 μg/ml
  Antibiotic MIC, Vancomycin: 0 µg/mL
MDREC 1229 [4]; [9]
  Antibiotic MIC, Erythromycin: >128 µg/mL
  Antibiotic MIC, Linezolid: >128 µg/mL
  Antibiotic MIC, Vancomycin: >128 µg/mL
MDREC 1229 [4]; [10]
  Antibiotic MIC, Erythromycin: 64 µg/mL
  Antibiotic MIC, Linezolid: >128 µg/mL
  Antibiotic MIC, Vancomycin: >128 µg/mL
MDREC 1229 [4]; [11]
  Antibiotic MIC, Erythromycin: 16 µg/mL
  Antibiotic MIC, Linezolid: 128 µg/mL
  Antibiotic MIC, Vancomycin: >128 µg/mL
MDREC 1229 [4]; [12]
  Antibiotic MIC, Erythromycin: 8 µg/mL
  Antibiotic MIC, Linezolid: 64 µg/mL
  Antibiotic MIC, Vancomycin: >128 µg/mL
MDREC 1229 [4]; [13]
  Antibiotic MIC, Erythromycin: 2 µg/mL
  Antibiotic MIC, Linezolid: 64 µg/mL
  Antibiotic MIC, Vancomycin: 128 µg/mL
MDREC 1229 [4]; [14]
  Antibiotic MIC, Erythromycin: 1 µg/mL
  Antibiotic MIC, Linezolid: 16 µg/mL
  Antibiotic MIC, Vancomycin: 32 µg/mL
MDREC 1229 [4]; [15]
  Antibiotic MIC, Erythromycin: 0.25 µg/mL
  Antibiotic MIC, Linezolid: 8 µg/mL
  Antibiotic MIC, Vancomycin: 16 µg/mL
MDREC 1229 [4]; [16]
  Antibiotic MIC, Erythromycin: 0 µg/mL
  Antibiotic MIC, Linezolid: 0 µg/mL
  Antibiotic MIC, Vancomycin: 0 µg/mL
A. baumannii [5]; A. baumannii and MDRAB 12035
  Synergistic effect of antibacterial activity with existing antibiotics compared with PapMA-1: level similar to that of PapMA-1 peptide
A. baumannii [5]; [17]
  Antibiotic MIC, Erythromycin: 32 µg/mL
  Antibiotic MIC, Linezolid: >128 µg/mL
  Antibiotic MIC, Vancomycin: >128 µg/mL
A. baumannii [5]; [18]
  Antibiotic MIC, Erythromycin: 16 µg/mL
  Antibiotic MIC, Linezolid: 128 µg/mL
  Antibiotic MIC, Vancomycin: 64 µg/mL
A. baumannii [5]; [19]
  Antibiotic MIC, Erythromycin: 8 µg/mL
  Antibiotic MIC, Linezolid: 64 µg/mL
  Antibiotic MIC, Vancomycin: 16 µg/mL
A. baumannii [5]; [20]
  Antibiotic MIC, Erythromycin: 2 µg/mL
  Antibiotic MIC, Linezolid: 32 µg/mL
  Antibiotic MIC, Vancomycin: 16 µg/mL
A. baumannii [5]; [21]
  Antibiotic MIC, Erythromycin: 0.5 µg/mL
  Antibiotic MIC, Linezolid: 8 µg/mL
  Antibiotic MIC, Vancomycin: 4 µg/mL
A. baumannii [5]; [22]
  Antibiotic MIC, Erythromycin: 0 µg/mL
  Antibiotic MIC, Linezolid: 0 µg/mL
  Antibiotic MIC, Vancomycin: 0 µg/mL
A. baumannii [5]; [23]
  Antibiotic MIC, Erythromycin: 0 µg/mL
  Antibiotic MIC, Linezolid: 0 µg/mL
  Antibiotic MIC, Vancomycin: 0 µg/mL
A. baumannii [5]; [24]
  Antibiotic MIC, Erythromycin: 0 µg/mL
  Antibiotic MIC, Linezolid: 0 µg/mL
  Antibiotic MIC, Vancomycin: 0 µg/mL
E. coli [6]; [25]
  Peptide MIC: 0 µg/mL
E. coli [6]; with Linezolid […] (Conc./MIC 1)
  Peptide MIC: 0 µg/mL
E. coli [6]; with Vancomycin 1024 μg/ml (Conc./MIC 1)
  Peptide MIC: 0 µg/mL
MDREC 1229 [7]; [25]
  Peptide MIC: 0 µg/mL
MDREC 1229 [7]; with Linezolid 512 μg/ml (Conc./MIC 1)
  Peptide MIC: 0 µg/mL
A. baumannii [8]; [26]
  Peptide MIC during treatment with antibiotic: 8 µg/mL
A. baumannii [8]; [27]
  Peptide MIC during treatment with antibiotic: 4 µg/mL
A. baumannii [8]; [28]
  Peptide MIC during treatment with antibiotic: 2 µg/mL
A. baumannii [8]; [29]
  Peptide MIC during treatment with antibiotic: 0 µg/mL
A. baumannii [8]; linezolid 32 μg/ml (Conc./MIC 1/8)
  Peptide MIC during treatment with antibiotic: 8 µg/mL
A. baumannii [8]; linezolid 64 μg/ml (Conc./MIC 1/4)
  Peptide MIC during treatment with antibiotic: 4 µg/mL
A. baumannii [8]; linezolid […] (Conc./MIC 1)
  Peptide MIC during treatment with antibiotic: 0 µg/mL
A. baumannii [8]; linezolid […] (Conc./MIC 1/2)
  Peptide MIC during treatment with antibiotic: 4 µg/mL
A. baumannii [8]; [30]
  Peptide MIC during treatment with antibiotic: 1 µg/mL
A. baumannii [8]; [31]
  Peptide MIC during treatment with antibiotic: 0 µg/mL
A. baumannii [8]; vancomycin […] (Conc./MIC 1/4)
  Peptide MIC during treatment with antibiotic: 1 µg/mL
A. baumannii [8]; vancomycin […] (Conc./MIC 1/8)
  Peptide MIC during treatment with antibiotic: 4 µg/mL
MDRAB 12035; [26]
  Peptide MIC during treatment with erythromycin: 16 µg/mL
MDRAB 12035; [27]
  Peptide MIC during treatment with erythromycin: 8 µg/mL
MDRAB 12035; [28]
  Peptide MIC during treatment with erythromycin: 4 µg/mL
MDRAB 12035; [29]
  Peptide MIC during treatment with erythromycin: 0 µg/mL
MDRAB 12035; linezolid 64 μg/ml (Conc./MIC 1/8)
  Peptide MIC during treatment with linezolid: 4 µg/mL
MDRAB 12035; linezolid 512 μg/ml (Conc./MIC 1)
  Peptide MIC during treatment with linezolid: 0 µg/mL
MDRAB 12035; linezolid […] (Conc./MIC 1/2)
  Peptide MIC during treatment with linezolid: 2 µg/mL
MDRAB 12035; linezolid […] (Conc./MIC 1/4)
  Peptide MIC during treatment with linezolid: 2 µg/mL
MDRAB 12035; [30]
  Peptide MIC during treatment with vancomycin: 2 µg/mL
MDRAB 12035; [31]
  Peptide MIC during treatment with vancomycin: 1 µg/mL
MDRAB 12035; vancomycin […] (Conc./MIC 1/4)
  Peptide MIC during treatment with vancomycin: 4 µg/mL
MDRAB 12035; vancomycin […] (Conc./MIC 1/8)
  Peptide MIC during treatment with vancomycin: 4 µg/mL
